# “And” between values parts separate entries of the source, which are not always exact repeats. Equal values may be shown once.
# System: carrageenan-induced mechanical hyperalgesia in rats
# Assay: Carrageenan-induced mechanical hyperalgesia, paw pressure test, MIN-117 1-10 mg/kg (Example 4)
# Type: in vivo, male Sprague-Dawley rats
# Conditions: Carrageenan 2%; for Nociceptive threshold, control paw (mean ± s.e.m.): T0 (3 h after carrageenan, before dosing); for paw withdrawal threshold, control paw, Mean: n = 10
# Method: In this model, inflammation is induced by intraplantar injection of carrageenan (2%) into the right hindpaw of the rat. Three hours later, reaction thresholds are measured using the paw pressure test. Pressure is gradually applied to both hind paws (inflamed and control) of the rat, and reaction thresholds are determined as the pressure (g) required to elicit paw withdrawal or vocalization. Morphine (3 mg/kg, s.c.), used as positive control.
# The experiments in this study used fifty (50) male Sprague-Dawley rats (SPF status, Janvier, France), each weighing 183-244 g during the experimental phase. The rats were housed in a temperature (20-24° C.) and relative humidity (45%-65%) controlled room and acclimated to an artificial day/night cycle of 12 hours light (6.30 a.m. to 6.30 p.m.)/12 hours darkness. Rats had free access to sterilized tap water and were fed ad libitum with pelleted complete diet (reference A04, S.A.F.E.). Animals were housed 4 per cage (cages Type E) and were acclimated for a period of at least 5 days before any testing. Each rat was identified by tail markings. Based on the SPF status of the animal facilities, there is no reason to expect that contaminants were present in the food, water or bedding, at levels capable of interfering with the results of the tests.
# Static mechanical hyperalgesia was assessed using the Paw Pressure test or Randall & Selitto test (Randall, L. O. and Selitto, J. J., A method for measurement of analgesic activity on inflamed tissue, Arch Int Pharmacodyn, 1957(111): 409-419). This test requires the application of an increasing pressure on the hind paws between a flat surface and a blunt pointer. This test is usually used with animals with one hind paw inflamed by an injection or injured by ligation, and one normal hind paw, to evaluate drugs for analgesic action. The apparatus exerts a steadily increasing force and reaction threshold is determined as the pressure (g) required to elicit paw withdrawal and/or vocalization. In the experiment, animals were gently handled by the experimenter and static mechanical hyperalgesia was assessed. Each reaction threshold measurement was done for both hind paws.
# Five (5) experimental groups of 10 rats each were used. Each group was first injected with 100 μL of a 2% carrageenan suspension was injected into the plantar aspect of the right hindpaw. Three hours after carrageenan injection, nociceptive reaction thresholds (vocalization or paw withdrawal) were measured in order to select animals meeting the inclusion criteria: 20 g<paw withdrawal threshold<240 g (baseline). The 5 groups were then administered the following: • Group 1: vehicle (0.5% HPMC), i.p., solution (negative control); • Group 2: MIN-117 (1 mg/kg, i.p.) in 0.5% HPMC, suspension; • Group 3: MIN-117 (3 mg/kg, i.p.) in 0.5% HPMC, suspension; • Group 4: MIN-117 (10 mg/kg, i.p.) in 0.5% HPMC, suspension; and • Group 5: morphine (3 mg/kg, s.c.) in 0.9% NaCl, solution (positive control).
# Thirty minutes after morphine injection, the antihyperalgesic effect of morphine was evaluated using the paw pressure test. For vehicle and MIN-117 administration, the antihyperalgesic effect was evaluated after 120 min. using the paw pressure test.
# Vehicle and MIN-117 were intraperitoneally administered at 10 mL/kg. Morphine was subcutaneously administered at 5 mL/kg. Dosing and testing were performed in a random order by a blinded experimenter except for the morphine-treated group. Doses were expressed in terms of free active substance.
# Results were expressed as: • The paw withdrawal threshold (mean±s.e.m.) in grams of contact pressure for each group, calculated from individual paw withdrawal thresholds • The percentage of variation of the paw withdrawal threshold calculated from the mean value of the vehicle-treated group • The percentage of activity of activity of the compound on carrageenan-induced mechanical hyperalgesia, calculated as follows: […]
# [1] = 1 mg/kg i.p., T0 (before dosing)
# [2] = 3 mg/kg i.p., T0 (before dosing)
# [3] = 10 mg/kg i.p., T0 (before dosing)
# [4] = MIN-117 1 mg/kg i.p. group, Baseline (before dosing)
# [5] = MIN-117 1 mg/kg i.p., 120 min after treatment, hydrochloride, 1 mg/kg
# [6] = MIN-117 3 mg/kg i.p. group, Baseline (before dosing)
# [7] = MIN-117 3 mg/kg i.p., 120 min after treatment, hydrochloride, 3 mg/kg
# [8] = MIN-117 10 mg/kg i.p. group, Baseline (before dosing)
# [9] = MIN-117 10 mg/kg i.p., 120 min after treatment, hydrochloride, 10 mg/kg
structure (smiles),measurement,setting,value
"Cc1nnc(-c2cc3c(OC[C@@H](O)CN4CCC(c5ccc(Cl)c(Cl)c5)CC4)cccc3o2)o1.Cl [MIN-117, (2S)-1-(4-(3,4-dichlorophenyl)piperidin-1-yl)-3-((2-(5-methyl-1,3,4-oxadiazol-2-yl)benzofuran-4-yl)oxy)propan-2-ol hydrochloride]",Effect on nociceptive threshold vs vehicle-treated group (in words),"1 mg/kg i.p., 120 min. after treatment",did not induce any significant increase
same,"Nociceptive threshold, control paw (mean ± s.e.m.)",1 mg/kg i.p.,402 ± 19.9 g
same,"% variation vs control paw, injured paw",[1],−50%
same,"% variation vs vehicle-treated group, injured paw",[1],1%
same,"Nociceptive threshold, injured paw (mean ± s.e.m.)",[1],202 ± 8.7 g
same,"% variation vs control paw, injured paw","1 mg/kg i.p., T0 + 120 min",−39%
same,"% variation vs pre-drug threshold, injured paw","1 mg/kg i.p., T0 + 120 min",14%
same,"% variation vs vehicle-treated group, injured paw","1 mg/kg i.p., T0 + 120 min",13%
same,"Nociceptive threshold, injured paw (mean ± s.e.m.)","1 mg/kg i.p., T0 + 120 min",230 ± 9.5 g
same,Effect on nociceptive threshold vs vehicle-treated group (in words),"3 mg/kg i.p., 120 min. later",significant increase
same,"Nociceptive threshold, control paw (mean ± s.e.m.)",3 mg/kg i.p.,392 ± 18.4 g
same,"% variation vs control paw, injured paw",[2],−47%
same,"% variation vs vehicle-treated group, injured paw",[2],4%
same,"Nociceptive threshold, injured paw (mean ± s.e.m.)",[2],208 ± 7.4 g
same,"% variation vs control paw, injured paw","3 mg/kg i.p., T0 + 120 min",−23%
same,"% variation vs pre-drug threshold, injured paw","3 mg/kg i.p., T0 + 120 min",42%
same,"% variation vs vehicle-treated group, injured paw","3 mg/kg i.p., T0 + 120 min",45%
same,"Nociceptive threshold, injured paw (mean ± s.e.m.)","3 mg/kg i.p., T0 + 120 min, hydrochloride, 3 mg/kg",296 ± 20.8 g
same,Effect on nociceptive threshold vs vehicle-treated group (in words),"10 mg/kg i.p., 120 min. later",significant increase
same,"Nociceptive threshold, control paw (mean ± s.e.m.)",10 mg/kg i.p.,384 ± 10.2 g
same,"% variation vs control paw, injured paw",[3],−47%
same,"% variation vs vehicle-treated group, injured paw",[3],2%
same,"Nociceptive threshold, injured paw (mean ± s.e.m.)",[3],204 ± 6.5 g
same,"% variation vs control paw, injured paw","10 mg/kg i.p., T0 + 120 min",−27%
same,"% variation vs pre-drug threshold, injured paw","10 mg/kg i.p., T0 + 120 min",53%
same,"% variation vs vehicle-treated group, injured paw","10 mg/kg i.p., T0 + 120 min",53%
same,"Nociceptive threshold, injured paw (mean ± s.e.m.)","10 mg/kg i.p., T0 + 120 min, hydrochloride, 10 mg/kg",312 ± 22.7 g
same,"% variation vs control paw, injured paw",[4],−50%
same,"% variation vs vehicle treated group, injured paw",[4],1%
same,"paw withdrawal threshold, control paw, Mean","MIN-117 1 mg/kg i.p. group, Baseline (before dosing, 3 h after carrageenan)",402 g
same,"% activity on carrageenan-induced mechanical hyperalgesia, injured paw","MIN-117 1 mg/kg i.p., 120 min",15%
same,"% variation vs control paw, injured paw","MIN-117 1 mg/kg i.p., 120 min",−39%
same,"% variation vs pre-drug threshold, injured paw","MIN-117 1 mg/kg i.p., 120 min",14%
same,"% variation vs vehicle treated group, injured paw","MIN-117 1 mg/kg i.p., 120 min",13%
same,"paw withdrawal threshold, control paw, individual rats",[5],400 g and 440 g and 340 g and 480 g and 360 g (4×) and 380 g and 320 g
same,"paw withdrawal threshold, injured paw, individual rats",[5],260 g (4×) and 220 g (2×) and 240 g and 200 g (2×) and 180 g
same,"paw withdrawal threshold, control paw, Mean","MIN-117 1 mg/kg i.p., 120 min after treatment",380 g
same,"% variation vs control paw, injured paw",[6],−47%
same,"% variation vs vehicle treated group, injured paw",[6],4%
same,"paw withdrawal threshold, control paw, Mean","MIN-117 3 mg/kg i.p. group, Baseline (before dosing, 3 h after carrageenan)",392 g
same,"% activity on carrageenan-induced mechanical hyperalgesia, injured paw","MIN-117 3 mg/kg i.p., 120 min",55%
same,"% variation vs control paw, injured paw","MIN-117 3 mg/kg i.p., 120 min",−23%
same,"% variation vs pre-drug threshold, injured paw","MIN-117 3 mg/kg i.p., 120 min",42%
same,"% variation vs vehicle treated group, injured paw","MIN-117 3 mg/kg i.p., 120 min",45%
same,"paw withdrawal threshold, control paw, individual rats",[7],380 g and 360 g (5×) and 440 g and 500 g and 320 g and 420 g
same,"paw withdrawal threshold, injured paw, individual rats",[7],360 g and 220 g and 420 g and 280 g (3×) and 340 g and 320 g and 260 g and 200 g
same,"paw withdrawal threshold, control paw, Mean","MIN-117 3 mg/kg i.p., 120 min after treatment",368 g
same,"% variation vs control paw, injured paw",[8],−47%
same,"% variation vs vehicle treated group, injured paw",[8],2%
same,"paw withdrawal threshold, control paw, Mean","MIN-117 10 mg/kg i.p. group, Baseline (before dosing, 3 h after carrageenan)",384 g
same,"% activity on carrageenan-induced mechanical hyperalgesia, injured paw","MIN-117 10 mg/kg i.p., 120 min",64%
same,"% variation vs control paw, injured paw","MIN-117 10 mg/kg i.p., 120 min",−27%
same,"% variation vs pre-drug threshold, injured paw","MIN-117 10 mg/kg i.p., 120 min",53%
same,"% variation vs vehicle treated group, injured paw","MIN-117 10 mg/kg i.p., 120 min",53%
same,"paw withdrawal threshold, control paw, individual rats",[9],440 g (3×) and 480 g and 520 g and 400 g and 340 g and 320 g and 360 g and 540 g
same,"paw withdrawal threshold, injured paw, individual rats",[9],320 g (2×) and 280 g (2×) and 340 g and 360 g and 480 g and 260 g and 240 g (2×)
same,"paw withdrawal threshold, control paw, Mean","MIN-117 10 mg/kg i.p., 120 min after treatment",428 g

# Source: patent US11766430B2, “Methods of using a phenoxypropylamine compound to treat pain” (Minerva Neurosciences, Inc., priority 2018, dated 2023)
